Molecular target: T1, CCR-2 receptor (Homo sapiens, UniProt P41597)
T1 construct: the endogenous CCR-2 receptor on various cell types including monocytes, THP-1 cells; endogenous in cells; host or cells: monocytes, THP-1 cells (or unnamed eukaryotic cells expressing the cloned receptor)
Test: CCR-2 binding assay (inhibition of 125I-MCP-1 binding)
Details: qualitative comparison among separated isomers; assay not given
Experimental: Receptor affinity in a CCR-2 binding assay was determined by measuring inhibition of ^125I-MCP-1 to the endogenous CCR-2 receptor on various cell types including monocytes, THP-1 cells, or after heterologous expression of the cloned receptor in eukaryotic cells. The cells were suspended in binding buffer (50 mM HEPES, pH 7.2, 5 mM MgCl2, 1 mM CaCl2, and 0.50% BSA) with and added to test compound or DMSO and ^125I-MCP-1 at room temperature for 1 h to allow binding. The cells were then collected on GFB filters, washed with 25 mM HEPES buffer containing 500 mM NaCl and cell bound ^125I-MCP-1 was quantified.

T1 sequence (P41597 whole entry): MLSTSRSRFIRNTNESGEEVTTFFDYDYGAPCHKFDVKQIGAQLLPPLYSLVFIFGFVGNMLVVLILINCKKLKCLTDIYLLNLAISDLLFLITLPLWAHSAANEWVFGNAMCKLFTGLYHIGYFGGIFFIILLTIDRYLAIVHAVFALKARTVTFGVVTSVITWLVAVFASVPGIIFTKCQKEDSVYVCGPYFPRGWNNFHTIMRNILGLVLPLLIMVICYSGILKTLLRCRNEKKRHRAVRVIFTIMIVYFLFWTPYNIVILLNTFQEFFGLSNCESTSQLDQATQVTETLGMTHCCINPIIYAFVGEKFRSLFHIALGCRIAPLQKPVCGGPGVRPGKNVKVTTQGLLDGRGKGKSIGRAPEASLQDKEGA

- potency relative to other stereoisomers: best potency
SMILES: CCOC(=O)c1cccc(C2CCN([C@@H]3CC[C@](C(C)=O)(C(=O)N4COc5ccc(C(F)(F)F)cc5C4)C3)CC2)c1 (single isomer, unassigned) [Peak 3]

Reference: patent US20070238723A1, “Benzoxazinyl-amidocyclopentyl-heterocyclic modulators of chemokine receptors” (priority 2004, published 2007)
